Test results reported in patent US20010001095A1, “Method for treating plants” (University of Maryland Eatern Shore, priority 1996, published 2001).
Marks after values point to notes of the source that are not given here.

Legend:
C3 crop plants = details: foliar sprays of aqueous (10-50%) methanol, arid environments; cited from earlier work
[1] = tested on: soybean (Glycine max (L.) Merr. cv. 'Corsica'); assay: Field experiments: foliar applications on soybean, seed yield by weight; type: in vivo
Method: To test the effects of foliar applications of methanol on soybean (Glycine max (L.) Merr. cv. ‘Corsica’ (maturity group IV)), field experiments were conducted over three years. In the first year, methanol at 0, 62.5 and 125 liters×ha^−1 was combined with urea nitrogen at 0, 12.5 and 25 kg×ha^−1 and sprayed with distilled water in a total volume of 500 liters×ha^−1 on test plants at the R5 stage of development. Latron B-1956 (Rohm and Haas) surfactant at 0.1% was included in all treatments. Treatments were applied from a knapsack sprayer in a randomized complete block design with four replications. Test blocks measured 5m×1.52m (7.6m^2). Plants were harvested by hand, threshed, and seed yield determined by weight. All seed weights are reported at 13% moisture content. […] To test whether PPFMS applied to leaves can substitute for methanol, spray applications of the bacterial alone and in combination with methanol were included in field experiments in the third year. […] The bacteria used in these treatments were isolated from soybean seed coat on plates of AMS medium. From a single bacterial colony, a liquid culture in the same medium was established and used to inoculate 12 liter batches of the bacteria in a Microferm fermentor (New Brunswick Scientific). Cells were harvested by centrifugation and resuspended in distilled water for application to plants in the field.

soybean = assay: Greenhouse experiment: methanol sprayed on soybean plants from cured (PPFMs absent) or untreated (PPFMs present) seeds, plant dry weight; type: in vivo; details: for Mean dry weight +/− SD: methanol 0.5 ml per plant, harvested 2 weeks after spraying; for % gain over controls (dry weight): vs zero-time control
Method: Application of PPFMs to plants was performed in accordance with the methods detailed in U.S. Pat. No. 5,512,069. Application of methanol to plants was performed in accordance with U.S. Patent No. 5,532,204.
Soybeans were treated with dry heat before planting to lower the population of PPFMs on them (see U.S. Pat. No. 5,512,069). Untreated seeds served as controls.
To test whether the presence of PPFM bacteria is required for foliar applications of methanol to be effective, greenhouse experiments were conducted. Seeds of soybean were cured of their PPFM bacteria with dry heat as previously described (Holland et al, 1992, Plant Physiol 98:942-948)). Cured and untreated seeds wee then plated in the greenhouse in a soil-less potting medium (Pro-Mix BX), Premier Horticulture Inc.). During germination, and while the seedlings established themselves, all plants were watered freely. After 4 weeks, both cured and untreated plants were divided into two groups (each group consisting of approximately 10 pots of 5 plants). One group of cured seedlings and one group of untreated seedlings were maintained as before under freely-watered conditions. […] After 2 weeks, half of the plants in each test group were harvested and dried to constant weight (a zero-time control). The remaining plants were sprayed with methanol (0.5 ml per plant) from an atomizer and were allowed to continue growing under their respective watering regimes for an additional 2 weeks. At the end of this period, all remaining plants were harvested and dried to constant weight.

[2] = second year, M1 = 62.5 liters × ha^−1 methanol, N1 = 12.5 kg × ha^−1 urea
[3] = non-stressed (freely watered), PPFMs present
[4] = stress (wilting) conditions, PPFMs present

CO [methanol]
growth and yield (C3 crop plants): increased growth and yield
Yield (seed yield) ([1]; first year, M2N0: 125 liters × ha^−1 methanol, 0 urea, sprayed at R5): 2.28
Yield (seed yield) [1, 2]: 2.4*
effect of methanol application on plant dry weight (a measure of yield) (soybean; non-stressed (freely watered) conditions, regardless of whether PPFMs are present): does not affect plant dry weight
Mean dry weight +/− SD (soybean; non-stressed (freely watered), PPFMs absent (cured seeds)): 5.03 ± 1.19 g
% gain over controls (dry weight) (soybean; non-stressed (freely watered), PPFMs absent (cured)): 80%
Mean dry weight +/− SD (soybean; [3]): 6.85 ± 1.69 g
% gain over controls (dry weight) (soybean; [3]): 78%
growth (increase in plant dry weight) (soybean; stress (wilting) conditions, only when PPFMs are present): improves growth
Mean dry weight +/− SD (soybean; stress (wilting) conditions, PPFMs absent (cured seeds)): 2.69 ± 0.65 g
% gain over controls (dry weight) (soybean; stress (wilting) conditions, PPFMs absent (cured)): 6%
Mean dry weight +/− SD (soybean; [4]): 4.64 ± 0.72 g
% gain over controls (dry weight) (soybean; [4]): 65%

NC(N)=O [urea]
Yield (seed yield) ([1]; first year, M0N1: 0 methanol, 12.5 kg × ha^−1 urea, sprayed at R5): 2.18
Yield (seed yield) ([1]; first year, M0N2: 0 methanol, 25 kg × ha^−1 urea, sprayed at R5): 2.15
Yield (seed yield) [1, 2]: 2.4
